Results: article PMC5746379 (2017)

Experiments:
[1] = tested on: P2 (DNA, G4) GGGCGGGGAGGGGGG; test: WaterLOGSY 1H NMR; conditions: 298 K; water with 10% D2O
[2] = tested on: P1 (DNA, G4) GGGCGGTGGGAGGGGGGTGGTGGG; test: absorption, fluorescence titration, WaterLOGSY NMR; conditions: buffer and highest concentration not stated
[3] = tested on: P2 (DNA, G4) GGGCGGGGAGGGGGG; test: fluorescence titration of M2 (emission shift Δλ); conditions: excitation 345 nm; buffer not stated
[4] = tested on: P1 (DNA, G4) GGGCGGTGGGAGGGGGGTGGTGGG; test: CD melting; conditions: 1:3 ratio P1-M2; Tm ~79 °C with and without M2; buffer not stated

For `CN(CCC#N)c1ccc(C=NCCCN=Cc2ccc(N(C)CCC#N)cc2)cc1`, the binding [1] was “yes”, the binding [2] was “no” and the KD [3] was 13.2 µM. The binding [4] was “no”.
